Earlier results, collected in the CATMoS acute toxicity set (Mansouri et al. 2021).
Where “and” joins values, the source holds several entries; their conditions need not be identical. Identical values can stand only once.

Assay: rat acute oral toxicity
Conditions: in vivo
Excerpt: […]The data set underlying the modeling effort for this project was initially compiled by NICEATM and U.S. EPA’s CCTE. Briefly, LD50 data were collected from rat acute oral systemic toxicity tests, including limit tests, ranges/confidence intervals, and discrete LD50 values. The full data set included 21,200 LD50 entries for 15,688 substances. […] Data were reviewed to ensure that LD50 values with obvious errors in the extracted data such as unit conversion errors (e.g., comma and decimal separator misplacements) were either fixed or removed. After this review, 16,209 LD50 values remained. Many of the chemicals represented had multiple LD50 entries, requiring that a single representative value per Chemical Abstracts Service Registry Number (CASRN) identifier be defined to facilitate modeling efforts. Based on ATWG feedback and to define the representative LD50 as a protective value while accounting for the distribution across multiple LD50s, the median of the lowest quartile was computed using only discrete LD50 values (omitting limit test data and range and confidence interval data). A detailed summary of the data compilation is available online on the NICEATM webpage dedicated to the collaborative modeling project (NTP 2020).
[…][…] For categorical designations, limit test and range/confidence interval LD50 data were integrated wherever possible. As such, the number of chemicals with end point values/calls varies across the modeling end points (Table 3) based on whether chemicals had representative LD50 values and/or other data. If a chemical had both, the representative value was used to determine categorical calls rather than limit test data. Some data were useable only for certain end points and categories depending on the thresholds. For example, ranges that spanned multiple hazard categories were considered only for the binary (very toxic/nontoxic) end points and omitted from rendering a determination for hazard category assignment.
[…]The final data set comprising 11,992 chemicals was split into training and evaluation sets […], respectively. This process was performed semirandomly by ordering chemicals based on the five end points (categorical and continuous LD50 values) and partitioning every fourth record into the evaluation set accordingly. This approach was taken to ensure an equivalent distribution of the LD50 values and the different hazard categories between the training and the evaluation sets without supervised sampling of the chemicals based on structures (Figure 1A). The sources of the chemical structures were also kept equivalent between the two sets, with chemical structures obtained from DSSTox, being the highest quality, representing over 75% of each set (Figure 1B).
In the case of CCOP(=O)(OCC)SCCS(=O)(=O)CC, the LD50 is given as 1.9 mg/kg. For CCCCOCC, the LD50 is listed as 1870 mg/kg. In the case of CC(C)c1cccc(C(C)C)c1O, the LD50 is given as 500 mg/kg. In the case of NC(N)=NCC=Cc1ccccc1, the LD50 is listed as 456 mg/kg. In the case of CC(=O)NC(=O)N(C)N=O, the LD50 is listed as 200 mg/kg. For CN1C2CCC1CC(OC(=O)C(C)(CO)c1ccccc1)C2 (configuration not stated), the LD50 is listed as 1100 mg/kg. For CCCCOCCOC(=O)c1ccccc1C(=O)OCCOCCCC, the LD50 is given as 8380 mg/kg. In the case of CCOC(C)CO (configuration not stated), the LD50 is given as 7110 mg/kg. In the case of CCn1cc(C(O)CN(C)C)c2ccccc21 (configuration not stated), the LD50 is given as 80 mg/kg. For CCCCN(CCCC)C(=O)CF, the LD50 is given as 37 mg/kg. For COC(OC)C(C)c1ccccc1 (configuration not stated), the LD50 is given as 1850 mg/kg. For CCCCN(CCCC)CCOc1ccnc(N)n1, the LD50 is listed as 1000 mg/kg. For CCCCSC(=Nc1cccnc1)SCc1ccc(C(C)(C)C)cc1, the LD50 is listed as 2700 mg/kg. In the case of Cc1cn(-c2cc(N)cc(C(F)(F)F)c2)cn1, the LD50 is listed as 50 mg/kg. For O=[N+]([O-])c1ccccc1O, the LD50 is given as 334 mg/kg. For ClC1=C(Cl)C2(Cl)C3C(Br)C=CC3C1(Cl)C2(Cl)Cl (configuration not stated), the LD50 is listed as 1040 mg/kg. For N=C1C=C(Br)C(=O)c2c(N)cc(Br)c(O)c21, the LD50 is given as 2400 mg/kg. For O=S(=O)(c1ccccc1)c1ccc(Cl)cc1, the LD50 is given as 1400 mg/kg. In the case of c1ccc(C2=NCOCS2)cc1, the LD50 is listed as 650 mg/kg. In the case of COc1ccc2c3c1O[C@H]1[C@H](N=[N+]=[N-])CC[C@H]4[C@@H](C2)N(C)CC[C@@]341, the LD50 is listed as 120 mg/kg. In the case of S=C=Nc1ccc(N=C=S)cc1, the LD50 is given as 21 mg/kg. In the case of COC(COC(N)=O)C1=C(N2CC2)C(=O)C(C)=C(N2CC2)C1=O (configuration not stated), the LD50 is given as 27.3 mg/kg. For FC(F)(Cl)C(Cl)Cl, the LD50 is given as 3290 mg/kg. For C[C@]12CCC(=O)C=C1CC[C@@H]1[C@@H]2CC[C@@]2(C)[C@H]1CC[C@]2(C)O, the LD50 is given as 2500 mg/kg. For Cn1c([N+](=O)[O-])cnc1/C=C/c1ccnc(N)n1, the LD50 is listed as 7600 mg/kg. In the case of O=C(Cl)OCc1ccccc1, the LD50 is given as 3000 mg/kg. In the case of CCC(C)C(C(=O)OCC[N+](C)(CC)CC)c1ccccc1 (configuration not stated), the LD50 is listed as 1260 mg/kg. For O=C1C(O)N=C(c2ccccc2F)c2cc(Cl)ccc2N1CCO (configuration not stated), the LD50 is given as 2550 mg/kg. For Cc1ccc2ccccc2n1, the LD50 is given as 1230 mg/kg. In the case of O=C(O)C=CC(=O)O, the LD50 is given as 8000 mg/kg and 3380 mg/kg. For CC(C)(c1ccccc1)c1cc(CN2CCCCC2)c(O)c(CN2CCCCC2)c1, the LD50 is listed as 600 mg/kg. For Nc1nc(N)nc(-c2cc(Cl)ccc2Cl)n1, the LD50 is given as 2900 mg/kg. For CN1C(=O)CC(=O)N(c2ccccc2)c2cc(Cl)ccc21, the LD50 is given as 6000 mg/kg. For FC(F)(F)C(Cl)Br (configuration not stated), the LD50 is given as 5680 mg/kg. For COc1ccc2c(c1OC)C13CCN(C)C(C2)C1(O)CCC(O)C3 (configuration not stated), the LD50 is given as 339 mg/kg. For Cc1cc(C(=O)c2ccccc2)ccc1N, the LD50 is given as 700 mg/kg. In the case of COC(C)C=O (configuration not stated), the LD50 is given as 940 mg/kg. For O=C(CN1CC1)NCCCCCCCCNC(=O)CN1CC1, the LD50 is listed as 225 mg/kg. For CC(C)(C)C(=O)CCC1C(=O)N(c2ccccc2)N(c2ccccc2)C1=O, the LD50 is listed as 455 mg/kg. For CC=Cc1cc(OC)c(OC)cc1OC, the LD50 is listed as 1010 mg/kg. In the case of c1cncc(C2CCCCN2)c1 (configuration not stated), the LD50 is given as 210 mg/kg and 235 mg/kg. In the case of CCOC(=O)C1=C(C)NC(C)=C(C(=O)OCC)C1c1ccccc1C(F)(F)F, the LD50 is given as 1220 mg/kg. For C=C(C)C(=O)OCCOCCOCCOC(=O)C(=C)C, the LD50 is given as 10800 mg/kg. In the case of COc1cnc(C)s1, the LD50 is given as 1250 mg/kg. For Cc1ccccc1N=C=O, the LD50 is listed as 1600 mg/kg. For CO[C@@H]1[C@@H](OC(N)=O)[C@@H](O)[C@H](Oc2ccc3c(O)c(NC(=O)c4ccc(O)c(CC=C(C)C)c4)c(=O)oc3c2C)OC1(C)C, the LD50 is listed as 3500 mg/kg. For COc1ccc2c(c1)c(CC(=O)Oc1cccc(C(F)(F)F)c1)c(C)n2C(=O)c1ccc(Cl)cc1, the LD50 is listed as 307 mg/kg. In the case of CCCCCCCCCCCCOC(C[n+]1ccccc1)c1ccc(C(C)C)cc1 (configuration not stated), the LD50 is listed as 250 mg/kg. For O=c1occo1, the LD50 is listed as 300 mg/kg. In the case of CN(C)C(CSC(N)=O)CSC(N)=O, the LD50 is given as 250 mg/kg and 225 mg/kg. In the case of COc1ccc(C(Oc2ccccc2)C2=NCCCN2)cc1F (configuration not stated), the LD50 is listed as 1000 mg/kg. For CCC(C)OC(C[n+]1ccccc1)c1ccc(Cl)cc1 (configuration not stated), the LD50 is listed as 250 mg/kg. For CCN(CCCl)c1ccccc1, the LD50 is listed as 616 mg/kg. In the case of Cc1cc(=O)oc2cc(OP(=O)(OCCCl)OCCCl)ccc12, the LD50 is given as 141 mg/kg. For CN1CCN(CCCCCCCCNC(=O)Oc2ccc3c(c2)C2(C)CCN(C)C2N3C)CC1 (configuration not stated), the LD50 is listed as 27.7 mg/kg. In the case of NC1CCCCC1, the LD50 is listed as 720 mg/kg and 1650 mg/kg. For CC(C)=NOC(=O)Nc1ccccc1, the LD50 is listed as 1540 mg/kg. In the case of COC(=O)C1=C(C)NC(C)=C(C(=O)O[C@@H]2CCCN(Cc3ccccc3)C2)[C@@H]1c1cccc([N+](=O)[O-])c1 (racemic), the LD50 is listed as 87.6 mg/kg. In the case of CCCCC(CC)COCCCN (configuration not stated), the LD50 is listed as 320 mg/kg. In the case of CCN(CC(=O)OCC(F)(F)F)c1cccc(C)c1, the LD50 is given as 1900 mg/kg. For O=[N+]([O-])c1ccc(Oc2ccc(C(F)(F)F)cc2Cl)cc1, the LD50 is given as 1000 mg/kg. In the case of CCCCN(CC)c1c([N+](=O)[O-])cc(C(F)(F)F)cc1[N+](=O)[O-], the LD50 is given as 10000 mg/kg.
